Experimental data taken from PubChem BioAssay AID248 (DTP/NCI, 2004).
Values joined by “and” are separate entries in the source; they are usually repeats but may differ in a detail not shown here. Equal values may be shown once. Toxic doses and inconclusive results are not listed. No stated cut-off is given here; in the data, active means T/C of 150% or more; inactive means T/C below 125%.

System: L1210 leukemia ip in BDF1 mice, survival T/C
Assay: NCI In Vivo Anticancer Drug Screen. Data for tumor model L1210 Leukemia (intraperitoneal) in B6D2F1 (BDF1) mice
Conditions: endpoint: mean survival time, higher = longer survival
In short: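 Tumor cells were implanted, animals were treated, and survival was followed. The result divides the treated measurement by the vehicle-control measurement.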

[1] = dose: 100.0 mg/kg/injection, schedule: Q04DX003 (ip), vehicle: saline
[2] = dose: 100.0 mg/kg/injection, schedule: Q01DX009 (ip), vehicle: Klucel (hydroxypropylcellulose) (HPC)
[3] = dose: 200.0 mg/kg/injection, schedule: Q01DX009 (ip), vehicle: Klucel (hydroxypropylcellulose) (HPC)
[4] = dose: 400.0 mg/kg/injection, schedule: Q01DX009 (ip), vehicle: Klucel (hydroxypropylcellulose) (HPC)
[5] = dose: 100.0 mg/kg/injection, schedule: Q01DX009 (ip), vehicle: saline
[6] = dose: 200.0 mg/kg/injection, schedule: Q01DX009 (ip), vehicle: saline
[7] = dose: 400.0 mg/kg/injection, schedule: Q01DX009 (ip), vehicle: saline
[8] = dose: 100.0 mg/kg/injection, schedule: Q01DX001 (ip), vehicle: carboxymethylcellulose (CMC)
[9] = dose: 200.0 mg/kg/injection, schedule: Q01DX001 (ip), vehicle: carboxymethylcellulose (CMC)
[10] = dose: 400.0 mg/kg/injection, schedule: Q01DX001 (ip), vehicle: carboxymethylcellulose (CMC)
[11] = dose: 100.0 mg/kg/injection, schedule: Q01DX009 (ip), vehicle: saline with Tween-80
[12] = dose: 200.0 mg/kg/injection, schedule: Q01DX009 (ip), vehicle: saline with Tween-80
[13] = dose: 100.0 mg/kg/injection, schedule: Q04DX003 (ip), vehicle: saline with Tween-80
[14] = dose: 200.0 mg/kg/injection, schedule: Q04DX003 (ip), vehicle: saline with Tween-80
[15] = dose: 100.0 mg/kg/injection, schedule: Q04DX002 (ip), vehicle: Klucel (hydroxypropylcellulose) (HPC)
[16] = dose: 400.0 mg/kg/injection, schedule: Q04DX002 (ip), vehicle: Klucel (hydroxypropylcellulose) (HPC)

Measured: T/C

ClC1=C(Cl)C(Cl)(Cl)C1(Cl)Cl
inactive: dose: 75.0 mg/kg/injection, schedule: Q01DX001 (ip), vehicle: carboxymethylcellulose (CMC) 109 % of control

CCCCC1CCC(N)CC1 (stereo unspecified)
inactive: dose: 25.0 mg/kg/injection, schedule: Q04DX003 (ip), vehicle: saline 105 % of control | dose: 50.0 mg/kg/injection, schedule: Q04DX003 (ip), vehicle: saline 100 % of control | [1] 105 % of control

CN(C)CCCN=Cc1[nH]c(=S)[nH]c(=O)c1Cc1ccc(Cl)cc1
inactive: dose: 100.0 mg/kg/injection, schedule: Q01DX001 (ip), vehicle: saline with Tween-80 102 % of control | dose: 200.0 mg/kg/injection, schedule: Q01DX001 (ip), vehicle: saline with Tween-80 111 % of control | dose: 400.0 mg/kg/injection, schedule: Q01DX001 (ip), vehicle: saline with Tween-80 101 % of control

c1ccc(/C(=N\Nc2nc3ccccc3s2)c2ccncc2)cc1
inactive: [2] 89 % of control | [3] 91 % of control | [4] 96 % of control

CC(C)C1CCC(C)(Cl)C2CCC(C)(Cl)CC12 (stereo unspecified)
inactive: [5] 96 % of control | [6] 91 % of control | [7] 89 % of control

Cc1cc2c(c(O)c1CN1CCOCC1)C1=C(CCCC1)C(C)(C)O2
inactive: [8] 107 % of control | [9] 91 % of control | [10] 86 % of control

COc1ccc(OC)c(CBr)c1CBr
inactive: dose: 5.0 mg/kg/injection, schedule: Q01DX001 (ip), vehicle: saline 101 % of control | dose: 10.0 mg/kg/injection, schedule: Q01DX001 (ip), vehicle: saline 98 % of control | dose: 20.0 mg/kg/injection, schedule: Q01DX001 (ip), vehicle: saline 101 % of control | dose: 40.0 mg/kg/injection, schedule: Q01DX001 (ip), vehicle: saline 98 % of control | dose: 80.0 mg/kg/injection, schedule: Q01DX001 (ip), vehicle: saline 104 % of control

COCn1cnc([N+](=O)[O-])c1Br
inactive: dose: 100.0 mg/kg/injection, schedule: Q01DX001 (ip), vehicle: acetone 101 % of control | [11] 96 % of control | dose: 200.0 mg/kg/injection, schedule: Q01DX001 (ip), vehicle: acetone 90 % of control | [12] 93 % of control | dose: 400.0 mg/kg/injection, schedule: Q01DX001 (ip), vehicle: acetone 100 % of control | dose: 400.0 mg/kg/injection, schedule: Q01DX009 (ip), vehicle: saline with Tween-80 86 % of control

CC(C)(C(=O)O)c1ccc(-c2ccccc2)cc1
inactive: [13] 102 % of control | [14] 97 % of control | dose: 400.0 mg/kg/injection, schedule: Q04DX003 (ip), vehicle: saline with Tween-80 106 % of control

Cc1cccc(N2CCN(c3ccncc3N)CC2C)c1 (stereo unspecified)
inactive: dose: 19.0 mg/kg/injection, schedule: Q01DX009 (ip), vehicle: saline with Tween-80 102 % of control | dose: 37.5 mg/kg/injection, schedule: Q04DX003 (ip), vehicle: saline with Tween-80 94 % of control | dose: 38.0 mg/kg/injection, schedule: Q01DX009 (ip), vehicle: saline with Tween-80 91 % of control | dose: 75.0 mg/kg/injection, schedule: Q01DX009 (ip), vehicle: saline with Tween-80 89 % of control | dose: 75.0 mg/kg/injection, schedule: Q04DX003 (ip), vehicle: saline with Tween-80 94 % of control

CC(=O)Nc1ccc(OC(=O)Nc2ccc(Cl)cc2C(F)(F)F)cc1
inactive: dose: 50.0 mg/kg/injection, schedule: Q01DX009 (ip), vehicle: saline with Tween-80 93 % of control | [11] 100 % of control | [12] 104 % of control

COc1ccc(COC(=O)Nc2ccccc2Cl)cc1
inactive: [2] 91 % of control | [15] 95 % of control | [3] 96 % of control | [4] 104 % of control | [16] 95 % of control

NCc1cc([N+](=O)[O-])ccc1Cl
inactive: dose: 50.0 mg/kg/injection, schedule: Q01DX009 (ip), vehicle: saline 101 % of control | [5] 95 % of control | [13] 92 % of control | [6] 97 % of control | [14] 103 % of control

Cc1ccccc1OCc1nc(-c2ccc(N(CCCl)CCCl)cc2)cs1
inactive: [8] 101 % of control | [9] 113 % of control | [10] 104 % of control

O=S(=O)(Cc1ccccc1)C(I)c1ccccc1 (stereo unspecified)
inactive: [15] 108 % of control | dose: 200.0 mg/kg/injection, schedule: Q04DX002 (ip), vehicle: Klucel (hydroxypropylcellulose) (HPC) 122 % of control | [16] 105 % of control

COc1cc2c(cc1NC1=NCCO1)OCO2
inactive: dose: 75.0 mg/kg/injection, schedule: Q04DX003 (ip), vehicle: Klucel (hydroxypropylcellulose) (HPC) 101 % of control | dose: 150.0 mg/kg/injection, schedule: Q04DX003 (ip), vehicle: Klucel (hydroxypropylcellulose) (HPC) 93 % of control | dose: 300.0 mg/kg/injection, schedule: Q04DX003 (ip), vehicle: Klucel (hydroxypropylcellulose) (HPC) 103 % of control

O=C(Nc1ccccc1C(F)(F)F)OCCOc1ccc(-c2ccccc2)cc1
inactive: [2] 93 % of control | [3] 91 % of control | [4] 91 % of control

CC(=O)/C(=N\N=C(N)N)c1ccccc1
inactive: dose: 1.88 mg/kg/injection, schedule: Q01DX Z (ip), vehicle: saline 102 % of control | dose: 3.75 mg/kg/injection, schedule: Q01DX Z (ip), vehicle: saline 93 % of control | dose: 3.75 mg/kg/injection, schedule: Q01DX Z (oral), vehicle: other 90 % of control | dose: 7.5 mg/kg/injection, schedule: Q01DX Z (ip), vehicle: saline 98 % of control | dose: 7.5 mg/kg/injection, schedule: Q01DX Z (oral), vehicle: other 98 % of control | dose: 15.0 mg/kg/injection, schedule: Q01DX Z (oral), vehicle: other 96 % of control

Nc1nc(=S)[nH]c(C(=O)O)c1Cc1ccccc1
inactive: dose: 10.0 mg/kg/injection, schedule: Q04DX003 (ip), vehicle: Klucel (hydroxypropylcellulose) (HPC) 101 % of control | dose: 20.0 mg/kg/injection, schedule: Q01DX009 (ip), vehicle: Klucel (hydroxypropylcellulose) (HPC) 92 % of control | dose: 20.0 mg/kg/injection, schedule: Q04DX003 (ip), vehicle: Klucel (hydroxypropylcellulose) (HPC) 95 % of control | dose: 40.0 mg/kg/injection, schedule: Q01DX009 (ip), vehicle: Klucel (hydroxypropylcellulose) (HPC) 104 % of control | dose: 40.0 mg/kg/injection, schedule: Q04DX003 (ip), vehicle: Klucel (hydroxypropylcellulose) (HPC) 98 % of control | dose: 80.0 mg/kg/injection, schedule: Q01DX009 (ip), vehicle: Klucel (hydroxypropylcellulose) (HPC) 98 % of control

COc1cc2c(cc1OC)C13CCN4CC5=CCOC6CC(=O)N2C1C6C5CC43 (stereo unspecified)
inactive: dose: 9.5 mg/kg/injection, schedule: Q01DX001 (ip), vehicle: other 103 % of control | dose: 19.0 mg/kg/injection, schedule: Q01DX001 (ip), vehicle: other 103 % of control | dose: 25.0 mg/kg/injection, schedule: Q01DX015 (ip), vehicle: saline 101 % of control | dose: 38.0 mg/kg/injection, schedule: Q01DX001 (ip), vehicle: other 97 % of control | dose: 50.0 mg/kg/injection, schedule: Q01DX015 (ip), vehicle: saline 100 % of control | dose: 100.0 mg/kg/injection, schedule: Q01DX015 (ip), vehicle: saline 91 % of control

COc1ccc(OC)c(/C=C/c2ccnc3ccccc23)c1
inactive: dose: 50.0 mg/kg/injection, schedule: Q01DX001 (ip), vehicle: carboxymethylcellulose (CMC) 93 % of control | [8] 96 % of control | [9] 91 % of control | [10] 87 % of control

CCOC(=O)C1Oc2ccc(Cl)cc2C1=O (stereo unspecified)
inactive: dose: 100.0 mg/kg/injection, schedule: Q04DX002 (ip), vehicle: gum acacia 97 % of control | dose: 200.0 mg/kg/injection, schedule: Q04DX002 (ip), vehicle: gum acacia 97 % of control | dose: 400.0 mg/kg/injection, schedule: Q04DX002 (ip), vehicle: gum acacia 101 % of control

O=c1ccc([N+](=O)[O-])c[nH]1
inactive: [5] 97 % of control and 93 % of control | [1] 105 % of control | [6] 101 % of control and 100 % of control | dose: 200.0 mg/kg/injection, schedule: Q04DX003 (ip), vehicle: saline 96 % of control and 103 % of control | [7] 105 % of control and 95 % of control | dose: 400.0 mg/kg/injection, schedule: Q04DX003 (ip), vehicle: saline 94 % of control and 96 % of control
